Results published in patent publication US20250101436A1, “APTAMERS AND SMALL MOLECULE LIGANDS” (MeiraGTx UK II Limited, priority 2021, published 2025).

Test system: luciferase gene expression in HEK 293 cells in response to Comp. 004
Assay: Screen of riboswitch constructs with 12C6-1 variant aptamers (libraries N1-N5) against Comp. 004, luciferase in HEK 293 cells
Type: cell-based, human
Conditions: library N1 (J2-4), HEK 293, 25 M [sic] Comp. 004
Description: Cloning of riboswitch constructs containing 12C6-1 variant aptamer sequences: 12C6-1 aptamer sequence was used as template, and nucleobases were randomized at certain position in the sequence. Aptamers incorporating random mutagenesis were synthesized by Integrated DNA Technologies, Inc. Golden Gate cloning strategy (New England Biolabs, NEB) was used to clone the synthesized aptamer sequences into intron-exon-intron cassette to replace the 12C6-1 aptamer in the Luci-12C6-1 riboswitch construct, generating riboswitch constructs containing variant aptamer sequences.
To further improve the riboswitch activity in responding to Comp. 004 and related compounds, the aptamer sequence 12C6-1 was subject to mutagenesis to generate aptamer variants, and the riboswitches containing the variant aptamers were screened against Comp. 004 for the ones that have improved dynamic range of induced gene expression (the fold induction), in comparison with the fold induction by parental riboswitch construct Luci-12C6-1. […] These loop or junction region alone or together with stem region in proximity were chosen for random mutagenesis to generate riboswitches with re-engineered aptamer sequences with improved activity.
Five aptamer libraries N1, N2, N3, N4 and N5 were generated by randomizing nucleotides at positions in J2-4, J2-3/J3-3a/J3a-2/P3, L3a, J4-5/J5-4/P4 and L5 regions of the parent 12C6-1 sequence, respectively (see FIGS. 3a and 3b). Single bacterial colonies were picked and plasmids containing variant riboswitch constructs were screened in HEK 293 cells for improved gene regulation activity in response to 25 µM Comp. 004 as compared to parent riboswitch construct Luci-12C6-1.

| Substance | Fold (induction of luciferase gene expression) [fold] |
| --- | --- |
| N1_2H2 (CTGGGGAGTCCTTCATGCGGGGC; chemistry not given here) | 2.85 |
| N1_2D9 (CTGGGGAGTCCTTCATGCGGGGC; chemistry not given here) | 9.74 |
| N1_2H9 (CTGGGGAGTCCTTCATGCGGGGC; chemistry not given here) | 1.91 |
| N1_2F4 (CTGGGGAGTCCTTCATGCGGGGC; chemistry not given here) | 4.74 |
| N1_2D1 (CTGGGGAGTCCTTCATGCGGGGC; chemistry not given here) | 4.38 |
| N1_2G6 (CTGGGGAGTCCTTCATGCGGGGC; chemistry not given here) | 11.00 |
| N1_2F3 (CTGGGGAGTCCTTCATGCGGGGC; chemistry not given here) | 15.56 |
| N1_2F11 (CTGGGGAGTCCTTCATGCGGGGC; chemistry not given here) | 150.18 |
| N1_2D7 (CTGGGGAGTCCTTCATGCGGGGC; chemistry not given here) | 2.16 |

Same assay, conditions: library N2 variant aptamers (J2-3, P3-J3-3a, J3a-2 randomized) of 12C6-1 in riboswitch constructs; in response to Comp. 004; HEK 293 cells

| Substance | Fold (induction of luciferase gene expression) [fold] |
| --- | --- |
| N2_2G10 (DNA CTGGGGAGTCCTTCATGC; chemistry not given here) | 1.0 |
| N2_2G3 (DNA CTGGGGAGTCCTTCATGC; chemistry not given here) | 1.1 |
| N2_2G7 (DNA CTGGGGAGTCCTTCATGC; chemistry not given here) | 1.0 |
| N2_2H7 (CTGGGGAGTCCTTCATGC; chemistry not given here) | 0.8 |
| N2_2H1 (CTGGGGAGTCCTTCATGC; chemistry not given here) | 1.1 |
| N2_2D12 (DNA CTGGGGAGTCCTTCATGC; chemistry not given here) | 1.1 |
| N2_2D9 (DNA CTGGGGAGTCCTTCATGC; chemistry not given here) | 1.0 |
| N2_2E3 (DNA CTGGGGAGTCCTTCATGC; chemistry not given here) | 1.3 |
| N2_2H3 (CTGGGGAGTCCTTCATGC; chemistry not given here) | 1.0 |
| N2_2D10 (DNA CTGGGGAGTCCTTCATGC; chemistry not given here) | 1.2 |
| N2_2E10 (DNA CTGGGGAGTCCTTCATGC; chemistry not given here) | 1.2 |
| N2_2D1 (CTGGGGAGTCCTTCATGC; chemistry not given here) | 1.1 |
| N2_2E12 (DNA CTGGGGAGTCCTTCATGC; chemistry not given here) | 1.3 |
| N2_2E4 (DNA CTGGGGAGTCCTTCATGC; chemistry not given here) | 0.7 |
| N2_2G5 (DNA CTGGGGAGTCCTTCATGC; chemistry not given here) | 1.0 |

Same assay, conditions: library N5 variant aptamers (L5, X16-X21 randomized) of 12C6-1 in riboswitch constructs; in response to Comp. 004 treatment; HEK 293 cells

| Substance | Fold (induction of luciferase gene expression) [fold] |
| --- | --- |
| N5_1A5 (CTGGGGAGTCCT; chemistry not given here) | 291.5 |
| N5_7B1 (CTGGGGAGTCCT; chemistry not given here) | 2062.3 |
| N5_6A3 (CTGGGGAGTCCT; chemistry not given here) | 696.0 |
| N5_1H6 (CTGGGGAGTCCT; chemistry not given here) | 654.9 |
| N5_1D8 (CTGGGGAGTCCT; chemistry not given here) | 383.5 |
| N5_1D12 (CTGGGGAGTCCT; chemistry not given here) | 3.6 |
| N5_8C7 (DNA CTGGGGAGTCCT; chemistry not given here) | 817.6 |
| N5_14B10 (CTGGGGAGTCCT; chemistry not given here) | 1133.0 |
| N5_5B6 (CTGGGGAGTCCT; chemistry not given here) | 1068.3 |
| N5_7A6 (CTGGGGAGTCCT; chemistry not given here) | 314.5 |
| N5_5E4 (CTGGGGAGTCCT; chemistry not given here) | 1116.0 |
| N5_6G6 (CTGGGGAGTCCT; chemistry not given here) | 1004.4 |
| N5_7H11 (DNA CTGGGGAGTCCT; chemistry not given here) | 1105.2 |
| N5_8H1 (DNA CTGGGGAGTCCT; chemistry not given here) | 1191.9 |
| N5_12F12 (CTGGGGAGTCCT; chemistry not given here) | 1169.8 |
| N5_1H4 (CTGGGGAGTCCT; chemistry not given here) | 482.5 |
| N5_1B9 (CTGGGGAGTCCT; chemistry not given here) | 941.5 |
| N5_1D1 (CTGGGGAGTCCT; chemistry not given here) | 321.6 |
| N5_7F1 (DNA CTGGGGAGTCCT; chemistry not given here) | 1744.2 |
| N5_13E8 (CTGGGGAGTCCT; chemistry not given here) | 2096.6 |
| N5_12G11 (CTGGGGAGTCCT; chemistry not given here) | 1043.8 |
| N5_3D3 (CTGGGGAGTCCT; chemistry not given here) | 1222.7 |
| N5_6B6 (CTGGGGAGTCCT; chemistry not given here) | 659.7 |

| Substance | Fold (induction of luciferase gene expression) [fold] |
| --- | --- |
| N5_1D5 (CTGGGGAGTCCT; chemistry not given here) | 841.7 |
| N5_1F3 (CTGGGGAGTCCT; chemistry not given here) | 212.8 |
| N5_1A10 (CTGGGGAGTCCT; chemistry not given here) | 674.4 |
| N5_7E6 (DNA CTGGGGAGTCCT; chemistry not given here) | 1153.2 |
| N5_7B7 (CTGGGGAGTCCT; chemistry not given here) | 1046.3 |
| N5_7B12 (CTGGGGAGTCCT; chemistry not given here) | 908.4 |
| N5_4D8 (CTGGGGAGTCCT; chemistry not given here) | 565.6 |
| N5_7B6 (CTGGGGAGTCCT; chemistry not given here) | 875.4 |
| N5_1C11 (CTGGGGAGTCCT; chemistry not given here) | 484.2 |
| N5_1A3 (CTGGGGAGTCCT; chemistry not given here) | 228.1 |
| N5_7D1 (DNA CTGGGGAGTCCT; chemistry not given here) | 909.3 |
| N5_6A8 (CTGGGGAGTCCT; chemistry not given here) | 1252.2 |
| N5_7B3 (CTGGGGAGTCCT; chemistry not given here) | 756.3 |
| N5_1D3 (CTGGGGAGTCCT; chemistry not given here) | 697.1 |
| N5_7D11 (DNA CTGGGGAGTCCT; chemistry not given here) | 759.2 |
| N5_7E8 (DNA CTGGGGAGTCCT; chemistry not given here) | 879.9 |
| N5_7B5 (CTGGGGAGTCCT; chemistry not given here) | 779.9 |
| N5_7F10 (DNA CTGGGGAGTCCT; chemistry not given here) | 572.7 |
| N5_2G10 (CTGGGGAGTCCT; chemistry not given here) | 1249.7 |
| N5_7H12 (DNA CTGGGGAGTCCT; chemistry not given here) | 1194.5 |
| N5_11D10 (CTGGGGAGTCCT; chemistry not given here) | 1719.3 |
| N5_7D6 (DNA CTGGGGAGTCCT; chemistry not given here) | 1210.5 |
| N5_6G10 (CTGGGGAGTCCT; chemistry not given here) | 1262.0 |
